Reference: PubChem BioAssay (NCI)
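Five compound concentrations were applied to cells in 96-well plates for 48 hours; endpoints were derived by simple linear interpolation of the resulting dose-response curve. TGI is the concentration that stops growth completely.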

What was measured:
Assay in all cases: NCI anticancer screen, dose series, 48 h
[1] = test system: UACC-257 melanoma
[2] = test system: SK-MEL-28 melanoma
[3] = test system: HCC-2998 colon
[4] = test system: LOX IMVI melanoma
[5] = test system: SNB-75 CNS
[6] = test system: ACHN renal
[7] = test system: SF-539 CNS
[8] = test system: IGROV1 ovarian
[9] = test system: RXF 393 renal
[10] = test system: SK-MEL-5 melanoma
[11] = test system: HS 578T breast
[12] = test system: OVCAR-5 ovarian
[13] = test system: A498 renal
[14] = test system: HCT-15 colon
[15] = test system: NCI/ADR-RES ovarian
[16] = test system: NCI-H23 lung
[17] = test system: COLO 205 colon
[18] = test system: HL-60(TB) leukemia
[19] = test system: UACC-62 melanoma
[20] = test system: SNB-19 CNS
[21] = test system: OVCAR-8 ovarian
[22] = test system: SN12C renal
[23] = test system: U251 CNS
[24] = test system: BT-549 breast
[25] = test system: OVCAR-4 ovarian
[26] = test system: MDA-MB-435
[27] = test system: NCI-H460 lung
[28] = test system: HCT-116 colon
[29] = test system: HT29 colon
[30] = test system: SK-MEL-2 melanoma
[31] = test system: NCI-H522 lung
[32] = test system: SF-268 CNS
[33] = test system: MCF7 breast
[34] = test system: SK-OV-3 ovarian
[35] = test system: HOP-92 NSCLC
[36] = test system: DU-145 prostate
[37] = test system: UO-31 renal
[38] = test system: TK-10 renal
[39] = test system: MDA-N
[40] = test system: PC-3 prostate
[41] = test system: 786-0 renal
[42] = test system: OVCAR-3 ovarian
[43] = test system: MALME-3M melanoma
[44] = test system: A549 NSCLC
[45] = test system: SR leukemia
[46] = test system: MOLT-4 leukemia
[47] = test system: EKVX NSCLC
[48] = test system: SF-295 CNS
[49] = test system: M14 melanoma
[50] = test system: T-47D breast
[51] = test system: RPMI-8226 leukemia
[52] = test system: KM12 colon
[53] = test system: SW-620 colon
[54] = test system: NCI-H226 lung
[55] = test system: MDA-MB-231 breast
[56] = test system: K-562 leukemia
[57] = test system: CAKI-1 renal
[58] = test system: HOP-62 NSCLC
[59] = test system: CCRF-CEM leukemia

COc1ccccc1/[N+]([O-])=C/c1ccccc1OC(=S)S
TGI [1]: > 100 µM
TGI [2]: > 100 µM
TGI [3]: 80.4 µM
TGI [4]: > 100 µM
TGI [5]: > 100 µM
TGI [6]: > 100 µM
TGI [7]: > 100 µM
TGI [8]: 77.2 µM
TGI [9]: > 100 µM
TGI [10]: > 100 µM
TGI [11]: > 100 µM
TGI [12]: > 100 µM
TGI [13]: > 100 µM
TGI [14]: > 100 µM
TGI [15]: > 100 µM
TGI [16]: > 100 µM
TGI [17]: 86 µM
TGI [18]: 74.5 µM
TGI [19]: > 100 µM
TGI [20]: > 100 µM
TGI [21]: 66.2 µM
TGI [22]: > 100 µM
TGI [23]: > 100 µM
TGI [24]: > 100 µM
TGI [25]: > 100 µM
TGI [26]: 36 µM
TGI [27]: > 100 µM
TGI [28]: > 100 µM
TGI [29]: > 100 µM
TGI [30]: 80.2 µM
TGI [31]: 71.4 µM
TGI [32]: > 100 µM
TGI [33]: > 100 µM
TGI [34]: > 100 µM
TGI [35]: 61.8 µM
TGI [36]: > 100 µM
TGI [37]: > 100 µM
TGI [38]: > 100 µM
TGI [39]: 35.9 µM
TGI [40]: > 100 µM
TGI [41]: 85.9 µM
TGI [42]: > 100 µM
TGI [43]: > 100 µM
TGI [44]: > 100 µM
TGI [45]: > 100 µM
TGI [46]: > 100 µM
TGI [47]: > 100 µM
TGI [48]: > 100 µM
TGI [49]: > 100 µM
TGI [50]: > 100 µM
TGI [51]: 63.7 µM
TGI [52]: > 100 µM
TGI [53]: > 100 µM
TGI [54]: > 100 µM
TGI [55]: > 100 µM
TGI [56]: > 100 µM
TGI [57]: > 100 µM

CCOC(=O)NC(Nc1cccc(F)c1)(C(F)(F)F)C(F)(F)F
TGI [1]: > 100 µM
TGI [2]: > 100 µM
TGI [3]: > 100 µM
TGI [4]: > 100 µM
TGI [5]: > 100 µM
TGI [6]: > 100 µM
TGI [7]: > 100 µM
TGI [8]: > 100 µM
TGI [9]: > 100 µM
TGI [10]: > 100 µM
TGI [11]: > 100 µM
TGI [12]: > 100 µM
TGI [13]: > 100 µM
TGI [14]: > 100 µM
TGI [15]: > 100 µM
TGI [16]: > 100 µM
TGI [17]: > 100 µM
TGI [18]: > 100 µM
TGI [19]: > 100 µM
TGI [20]: > 100 µM
TGI [21]: > 100 µM
TGI [22]: > 100 µM
TGI [58]: > 100 µM
TGI [23]: > 100 µM
TGI [24]: > 100 µM
TGI [26]: > 100 µM
TGI [27]: > 100 µM
TGI [28]: > 100 µM
TGI [29]: > 100 µM
TGI [30]: > 100 µM
TGI [31]: > 100 µM
TGI [32]: > 100 µM
TGI [33]: > 100 µM
TGI [34]: > 100 µM
TGI [35]: > 100 µM
TGI [36]: > 100 µM
TGI [37]: > 100 µM
TGI [38]: > 100 µM
TGI [39]: > 100 µM
TGI [40]: > 100 µM
TGI [41]: > 100 µM
TGI [42]: > 100 µM
TGI [43]: > 100 µM
TGI [44]: > 100 µM
TGI [45]: > 100 µM
TGI [46]: > 100 µM
TGI [47]: > 100 µM
TGI [48]: > 100 µM
TGI [49]: > 100 µM
TGI [50]: > 100 µM
TGI [51]: > 100 µM
TGI [52]: > 100 µM
TGI [59]: > 100 µM
TGI [53]: > 100 µM
TGI [54]: > 100 µM
TGI [55]: > 100 µM
TGI [56]: > 100 µM
TGI [57]: > 100 µM
